Results on three substances are retold here after US7264948B2, “Polypeptides for increasing mutant CFTR channel activity” (University of Pittsburgh, priority 2002, dated 2007).

Ends that are not written are not given here.

The test system of assay [1] is mouse lungs. Nature of the assay: Intra-tracheal delivery of PTD5 streptavidin-Cy3 complexes into mouse lungs, two-photon microscopy. In kind it is in vivo. The note with it: 50 μl of 200 μM, three hours post-injection, FIG. 3. As for the experimental part:
To determine if the PTDs can facilitate protein uptake by mouse lungs, the PTD5 streptavidin-Cy3 complexes were delivered into mouse lungs intra-tracheally. The treated mice were sacrificed three hours post-delivery and tissue from the lungs was scanned by two-photon microscopy. 50 μl of 200 μM solution of the PTD-5-β-Cy3 was injected intra-tracheally into mouse lungs. Three hours post-injection, the mice were sacrificed, and the lungs were analyzed by two photon confocal microscopy for internalization. A control peptide (Con.P)-Cy3 was used as a control.

Assay [2] concerns Calu3 cells and human bronchial epithelial cells (KK). Nature of the assay: PTD-5-facilitated delivery of streptavidin-Cy3, confocal microscopy. The assay is classed as cell-based. The note with it: three hours, 37° C., FIG. 2. As for the experimental part:
(§1) To determine whether the PTD5 polypeptide (RRQRRTSKLMKR) was able to facilitate uptake into different cell types including differentiated airway epithelial cells and Calu3 cells, the ability of PTD5 to deliver avidin-β-Gal and streptavidin Cy3 to human airway cells and Calu3 cells was examined.
PTD-5 was also coupled to streptavidin-Cy 3, which was added to Calu3 cell and human bronchial epthelial cells (KK) cultures at 37° C. (FIG. 2). A peptide (Con.P)-strepavdin-Cy3 was used as a control. Three hours post addition of the PTD-5-streptavidin-Cy 3, the intracellular localization of the red (Cy 3) fluorescent signals were visualized by confocal microscopy. The nuclei were counterstained using cytox green.

In assay [3] the test system is human airway cells. Kind of assay: Organelle distribution of PTD-5-avidin-β-gal, gradient ultracentrifugation and β-gal activity. In kind it is cell-based. The note with it: 37° C., purified organelles, FIG. 5. As for the experimental part: To test the distribution of PTD5 facilitating uptake into human airway cells, the ability of PTD5 to deliver β-gal protein to a variety of cell organelles was examined by separation of organelles using gradient ultra-centrifugation. PTD-5-avidin-β-gal and a control peptide, (Con.P)-avidin-β-gal, were added to the media bathing the airway cell cultures and incubated at 37° C. Three hours post-addition of the complexes, the cells were washed extensively and collected for organelle isolation by gradient ultracentrifugation. The purified cell organelles were tested for β-gal activity using a Galacto-light kit (Tropix, Inc.).

Assay [4] deals with primary human airway epithelial cells (HBE144), polarized canine kidney cells (MDCK) and other cell types. Nature of the assay: PTD-5-facilitated delivery of avidin-β-gal complex, X-gal staining. In kind it is cell-based. The note with it: 150 nM PTD-5-avidin-β-gal complex, three hours, FIG. 1. As for the experimental part:
as §1
PTD-5 is a positively charged transduction peptide, which was biotinylated so that it can be coupled to avidin marker complexes. 150 nM of the PTD-5-avidin-β-gal complex was added to the cell culture media of various cell lines (FIG. 1). Three hours post addition of the complex, the indicated cells were fixed and stained with X-gal.

Assay [5] has as its system ΔF508 CFTR. Kind of assay: Whole cell patch clamp of forskolin-stimulated currents. The note with it: primary human airway (HBE) cells, four hours treatment, 5-10 μM forskolin, 37° C. A general note: In patch-clamp work, channel activity is measured electrically.
Method: To increase the specificity of the method, a whole cell patch clamp method can be utilized to verify the SPQ data using PTD-5 ΔF508 NBD1/RD. Briefly, cells at 50% confluence are treated with PTD fusion peptide or adenovirus carrying ΔF508 NBD1/RD for four hours and subjected to whole cell patch clamp by standard methods. Currents are recorded at −60 mV and current-voltage relations are obtained before and after the cells are stimulated with 5-10 μM forskolin; all procedures are performed at 37° C. The bath solution contained (in mM) 150 NaCl, 2 MgCl2, 1 EGTA, 5 HEPES and 0.5 CaCl2 (pH=7.3). The pipette solution contains (in mM) 150 NaCl, 2 MgCl2, 5 HEPES and 2 CaCl2 (pH=7.3). Data is amplified using an Axopatch 200A patch-clamp amplifier and recorded to disk by a Digidata A/D interface for later analysis with pCLAMP8. The data is low-pass filtered and digitized at 1 kHz.
The target in assay [6] is T1, interaction of Hdj2 and ΔF508 CFTR (Homo sapiens, UniProt P31689).
T1 construct: endogenous in cells; host or cells: KK bronchial epithelial cell line (lysate)
Kind of assay: Co-immunoprecipitation of Hdj2 with CFTR in KK cell lysate treated with fusion protein. The assay is classed as binding. The protocol: To test whether PTD-5 ΔF508NBD1-RD could inhibit interaction of Hdj2 and ΔF508 CFTR, KK cells, a bronchial epithelial cell line carrying the ΔF508 mutation, were lysed with a lysis buffer, the lysate was treated with PTD5-NBD1-ΔF-RD and equal amount lysates were used to perform immunoprecipitation (IP) using CFTR antibodies, M3A7 (1 μg) and L12B4 (1 μg) and protein […] beads. The precipitants were washed five times with lysis buffer. Hjd2 that co-precipitated with CFTR was fractionated by SDS-PAGE, transferred to PVDF membrane and detected by immunoblotting (IB).

Regarding “RRQRRTSKLMKR (also: biotinylated (position not given here)) [PTD-5, biotinylated for coupling to avidin marker complexes]”, in assay [1], the “Cy3 signal in lungs” value is on record as “significant Cy3 signal”. The “delivery of streptavidin-Cy3 complex into cells (confocal microscopy)” value in assay [2] is “delivered the streptavidin-Cy3 complex”. For the same substance, the “delivery of avidin-β-gal complex to cell organelles (β-gal activity)” value in assay [3] is “able to deliver the avidin-β-gal complex to ER, Golgi, mitochondria, and nuclei”. Also, in assay [4], the “delivery of avidin-β-gal complex into cells (X-gal staining)” value is given as “able to deliver the avidin-β-gal complex”.
As for “PTD5-ΔF508 NBD1/RD fusion protein: inline fusion of PTD-5 with the ΔF508 CFTR NBD1-RD region, histidine tag, expressed in E. coli, nickel column purified”, in assay [5], the “forskolin-stimulated whole cell currents” value is on record as “forskolin-stimulated currents typical of those associated with CFTR”. Besides, the “interaction of Hdj2 with ΔF508 CFTR (co-immunoprecipitation)” value in assay [6] (listed as PTD5 ΔF508NBD1-RD fusion protein) was “capable of inhibiting the interaction of Hdj2 with the ΔF508 CFTR protein”; in assay [6] (listed as PTD-5-ΔF508 NBD1-RD), “disrupts ΔF508 CFTR interaction with chaperone Hdj2”.
On to “ARPLEHGSDKAT (control, Con P) [reference compound]”, for which the “Cy3 signal in lungs” value in assay [1] was “weak signals”. In assay [3], the “delivery of avidin-β-gal complex to cell organelles (β-gal activity)” value is given as “did not localize to any of the organelles”.
